Measured values reported in patent US20170369892A1, “HORMONE DEGRADABLE CRISPR-BASED TRANSCRIPTION FACTORS” (University of Washington, priority 2016, published 2017).
“Also recorded” adds a separate entry of the source.

Columns and labels:
[1] = system: EYFP-IAA17|AFB2 auxin reporting strain expressing iaaH; assay: Time-lapse cytometry of iaaH sender strain with EYFP-IAA17|AFB2 auxin reporter after IAM or auxin; assay type: cell-based, Saccharomyces cerevisiae
Source text: FIG. 3A illustrates an auxin sender strain design. The iaaH enzyme of Agrobacterium tumefaciens catalyzes the conversion of indole-3-acetamide (IAM) into auxin, inducing the degradation of proteins fused to an auxin degron. The iaaH enzyme (sender cells) was integrated into an auxin reporting strain (the EYFP-IAA17|AFB2 strain from Havens, et al. (2012) Plant Physiol. 160, 135-42) to test for internal auxin production.
Yeast can produce tunable levels of auxin via expression of Iaah from Agrobacterium tumefaciens. To generate an auxin producing strain, half of the IAM pathway from Agrobacterium tumefaciens was integrated into yeast (see Zhao, Y. (2010) Annu. Rev. Plant Biol. 61, 49-64). The IAM pathway is a two-step enzymatic process that converts tryptophan to IAM and then into auxin. The first step is via tryptophan-2-monooxygenase (iaaM, not examined here). The second step is catalyzed by indole-3-acetamide hydrolase (iaaH). To test whether yeast could produce auxin from IAM using only the second enzyme, the iaaH gene from the Agrobacterium tumefaciens Ti plasmid (see Pacurar, D. I., et al. (2011) Physiol. Mol. Plant Pathol. 76, 76-81) was integrated into an auxin reporting yeast strain (see FIG. 3A) containing a IAA-YFP fusion protein. After adding IAM, reporter degradation rates were measured via time-lapse cytometry (see FIG. 3B).
(§1) All cytometry measurements were acquired with an ACCURI™ C6 cytometer with attached CSAMPLER™ apparatus using 488 nm and 640 nm excitation lasers and a 533 nm (FL-1: YFP/GFP) emission filter. For experiments involving steady-state ADC behavior (see FIGS. 6A-7B) cultures were grown overnight in SC media with 1 nM beta-estradiol for ADC expression induction. The next morning they were diluted down 1:100 and then grown up for 5 hours and then induced with varying auxin concentrations from stock solutions. These cultures were then grown overnight and fluorescence was measured the next day. For the replicates, untreated cultures from the previous day's experiments were used as overnights to begin the next day's cultures.

[2] = system: receiver cells (ADCTF, gRNA targeting minimal CYC1 promoter driving EGFP); assay: Coculture of sender and receiver strains treated with IAM; assay type: cell-based, Saccharomyces cerevisiae; settings: saturating IAM
Source text: FIG. 5A illustrates coculture of sender and receiver strains. Sender cells convert IAM into auxin that then diffuses out of sender cells and into receiver cells where it causes the degradation of ADCTFs, producing a drop in fluorescence.
Sender cells can produce a tunable auxin response in receiver cells. Sender and receiver cells were cocultured in different ratios to measure the effect of sender cell concentration on auxin signal production. Senders constitutively express iaaH and the receivers expressed an activating ADCTF and a gRNA targeting a minimal CYC1 promoter driving EGFP (see FIG. 5A). […] Three different receiver strains with a range of responses to auxin were tested with the sender strain. […] In addition, a 10% fraction of sender cells is sufficient for a significant change in fluorescence in receiver cells at steady state and a 50% fraction produces a nearly saturating signal (see FIGS. 5C and 5D).

[3] = system: UBQ1 promoter driving venus-luciferase reporter repressed by ADCTF; assay: ADCTF-regulated venus-luciferase reporter in plants after auxin treatment; assay type: in vivo, Arabidopsis thaliana
Source text: FIG. 12A is a schematic of the genetic circuit that was transformed into Arabidopsis thaliana to test the function of the hormone degradable CRISPR based transcription factor (HDCTF). […] These complex together and cause repression of the UBQ1 promoter, which is driving the expression of a venus-luciferase fusion reporter with a nuclear localization tag fused to it. Auxin can interact with the degron domain of the ADCTF (a version of the HDCTF) to degrade the transcription factor and relieve repression.
FIG. 12B is graph showing the normalized luciferase reporter activity over time for two plants, one of which has an ADCTF with a functional degron and the other which has a ADCTF with a stabilized degron. The orange bar indicates when the plants were exposed to either an auxin (solid line) or control (dashed line) treatment. The box plot summarizes the behavior of several plant lines with the functional or stabilized degron ADCTFs eighty minutes after treatment.

[4] = system: ADCTF (auxin receiver) strain, minimal CYC1 promoter driving EGFP; assay: Cytometry of ADCTF receiver yeast strains (GFP reporter) after auxin induction; assay type: cell-based, Saccharomyces cerevisiae
Source text: Synthetic, scalable, auxin-modulated transcription factors are provided. To link an auxin sensor to diverse transcriptional responses and targets, auxin degradable CRISPR transcription factors (ADCTFs) with three modular domains were designed (see FIG. 1A). In some embodiments, a core component of the ADCTFs can be the CRISPR-based transcription factor described by Farzadfard, et al. (“Tunable and multifunctional eukaryotic transcription factors based on CRISPR/Cas,” ACS synthetic biology 2.10 (2013): 604-613), wherein a dCas9 protein functions as a programmable DNA binding module. The dCas9 was fused to a transcriptional effector domain, in this case the transcriptional activator VP64, and to an IAA degron. In the presence of an AFB, ADCTFs should generally be ubiquitinated and degraded when exposed to auxin. The ADCTFs were tested by targeting them to activate the expression of EGFP from a minimal CYC1 promoter and observing deactivation of fluorescence upon the addition of auxin. […] Auxin dependent regulation was independent of the promoter being regulated by the ADCTF (see FIG. 6B). The observed effect was also reversible.
as §1
For time course experiments, cultures were grown overnight in SC media with 1 nM beta-estradiol for ADC expression induction. The next morning two sets of parallel cultures were set up by diluting down the overnights 1:100. These were then grown up for 5 hours and then induced with 30 μM auxin and reads were taken every 30 minutes for approximately seven hours. A final steady state reading was taken the next day.
Cytometry data were analyzed using custom R scripts and the FLOWCORE™ package by first gating for the yeast diploid population and then generating mean fluorescence values for every point. These datasets were then collectively fit using the LOESS fitting function in R and metrics and error were derived from these fits. For the recovery experiments, the same protocol was used except the overnight cultures were grown up in SC with 1 nM beta-estradiol and 30 μM auxin.

[5] = system: laboratory strains of yeast; settings: grown in standard conditions; cited from earlier work

Molecule: NC(=O)Cc1c[nH]c2ccccc12 [IAM, indole-3-acetamide]
- delay between addition of IAM and production of auxin [1]: no significant delay
- auxin-induced degradation rate (t1/2) of reporter ([1]; for a given molarity, compared with auxin): comparable to that of native auxin
- fluorescence of sender cells following addition of IAM ([1]; time-lapse cytometry): decreased to basal levels
- steady state fluorescence of sender cells ([1]; varying doses of IAM): lower steady state fluorescence; also recorded: converge to those of auxin
- fluorescence / gene activation in receiver strain [2]: dropped in fluorescence over time; also recorded: comparable to direct addition of auxin

Molecule: auxin
- normalized luciferase reporter activity ([3]; ADCTF with functional degron, eighty minutes after treatment): significant increase in reporter expression
- reporter expression in root tip (confocal microscopy) ([3]; root tip): significant increase in reporter expression
- release of regulation with minimal pGAL promoter driving GFP ([4]; 30 μM auxin, degron 17 with AFB2 or TIR1-DM, compared with pCYC1 target): comparable release of regulation
- GFP fluorescence level following addition of auxin ([4]; time-lapse cytometry, ADCTF strain expressing gRNA): dropped to basal levels; also recorded: dropped to levels at or below the control (no gRNA) levels
- reporter expression after auxin was removed ([4]; wash-out after steady state): returned to its activated state
- effects on laboratory strains of yeast [5]: does not have measurable effects

B1: tir1-D/M: mutant of TIR1 F-box protein (protein, UniProt Q570C0 1-594, looked up, variant D170E M473L)
Protein TRANSPORT INHIBITOR …: MQKRIALSFPEEVLEHVFSFIQLDKDRNSVSLVCKSWYEIERWCRRKVFIGNCYAVSPATVIRRFPKVRSVELKGKPHFADFNLVPDGWGGYVYPWIEAMSSSYTWLEEIRLKRMVVTDDCLELIAKSFKNFKVLVLSSCEGFSTDGLAAIAATCRNLKELDLRESDVDEVSGHWLSHFPDTYTSLVSLNISCLASEVSFSALERLVTRCPNLKSLKLNRAVPLEKLATLLQRAPQLEELGTGGYTAEVRPDVYSGLSVALSGCKELRCLSGFWDAVPAYLPAVYSVCSRLTTLNLSYATVQSYDLVKLLCQCPKLQRLWVLDYIEDAGLEVLASTCKDLRELRVFPSEPFVMEPNVALTEQGLVSVSMGCPKLESVLYFCRQMTNAALITIARNRPNMTRFRLCIIEPKAPDYLTLEPLDIGFGAIVEHCKDLRRLSLSGLLTDKVFEYIGTYAKKMEMLSVAFAGDSDLGLHHVLSGCDSLRKLEIRDCPFGDKALLANASKLETMRSLWMSSCSVSFGACKLLGQKMPKLNVEVIDERGAPDSRPESCPVERVFIYRTVAGPRFDMPGFVWNMDQDSTMRFSRQIITTNGL
- degradation kinetics (time to 50% degradation) ([4]; 30 μM auxin induction, ranking across library): fastest overall
- auxin sensitivity range conferred by F-box protein ([4]; steady state, dose response twenty-four hours after induction): narrowest
